Measured values from patent US11905268B2, “Anthranilic acid derivatives and their use in the treatment of human cancers” (UNIVERSITY OF CENTRAL FLORIDA RESEARCH FOUNDATION, INC., priority 2018, dated 2024).
Where two headings read alike, the source gives them in different places.

How the values were obtained:
[1] = tested on: L3.6pl cells; experiment: cells; assay type: cell-based; settings: for IC50: Homo sapiens, L3.6pl; for L3.6pl MTC: maximum tolerated concentration where cells are >90% viable
[2] = tested on: L3.6pl cells; experiment: Ant44 assay in L3.6pl cells; assay type: cell-based, human; settings: for EC value in Ant44 (3 μM) assay: Table 9, ECx = y: x% effect at y μM; for EC50: Homo sapiens, L3.6pl
Protocol: For example, in the ANT44 assay an EC48=9 means that the PTI molecule at 9 μM was able to block 48% of the Ant44 entry into L3.6 pl human Pancreatic ductal adenocarcinoma cells after 72 h incubation time at 37° C. Another explanation, is that the PTI was able to disrupt […] of the intracellular trafficking of Ant44 that leads to toxicity. Recall a polyamine transport inhibitor can work at any one (or more than one) of the different steps involved in the multi-step polyamine import and intracellular trafficking process. Blocking the entering spermidine from reaching its intended intracellular target is another way in which these compounds may function.
(§1) The higher EC value denotes the compound is giving a relative % growth of L3.6 pl cells consistent with inhibiting either Ant44 uptake or blocking the uptake of the rescuing dose of spermidine. Alternatively these compounds may disrupting the intracellular trafficking of Ant44 and spermidine so they cannot reach their intended intracellular target.

[3] = tested on: L3.6pl cells; experiment: DFMO/Spd rescue assay in L3.6pl cells; assay type: cell-based, human; settings: for EC value in DFMO/Spd rescue assay: Table 9, ECx = y: x% effect at y μM
Protocol: In another example in the DFMO spermidine (Spd) rescue assay an EC38=8 means that the PTI molecule at 8 μM was able to block 38% of the entry of spermidine into DFMO treated L3.6 pl cells after 72 h incubation time at 37° C. Another explanation, is that the PTI was able to disrupt […] of the intracellular trafficking of Spd that leads to cell rescue. […] Since both Ant44 and Spermidine are polyamine-based systems, cells likely use one mode of the polyamine transport (basal or obligate) in each assay.
as §1

[4] = tested on: CHO cells; experiment: Ant44 rescue assay in CHO cells (Assay 1); assay type: cell-based, Chinese hamster; settings: for EC50 / IC50: Cricetulus griseus; for Active in Ant44 assay?: Table 2, in CHO
Protocol: CHO K1 cells were grown in growth medium (RPMI+10% FBS+1×P/S+1% l-glutamine) to 70% confluency, washed in PBS and trypsinized. Cells were plated in assay medium (serum free RPMI+2% FBS+1×l-glutamine+1×P/S+[…] aminoguanidine) at 50000 cells/mL for 200 cells per well in 4 ul using a Thermo Multidrop Combi into a 1536-well white Aurora plate.
Ant44 is a cytotoxic polyamine, i.e., N^1-(9-anthracenyl)-homospermidine. A non-toxic PTI compound would block entry or intracellular trafficking of the Ant44 toxin and rescue the cells back to high viability. Therefore, this screen tested for compounds which rescued cells from Ant44 toxicity. […] This was followed by adding 10 uL of 10 uM Ant44 (FAC 2 uM) in assay medium with a Beckman BioRAPTR FRD dispenser or 10 uL of cells added in assay medium (positive control).

[5] = tested on: DFMO treated Chinese hamster ovary (CHO) cells; experiment: DFMO/spermidine rescue assay in CHO cells (Assay 2); assay type: cell-based; settings: for activity in DFMO assay: CHO cells; for EC50 / IC50: Cricetulus griseus, CHO; for EC50: Table 2
Protocol: In the reconfirmation assay compounds were run in quadruplicate. […] A PTI compound is expected to block the entry or disrupt the intracellular trafficking of spermidine and inhibit the ability of spermidine to rescue the growth or viability of DFMO treated cells.
DFMO/Spermidine assay Here cells were treated with an inhibitor of polyamine biosynthesis (DFMO) and rescued back to high viability by the presence of exogenous polyamine (spermidine). Putative PTI compounds were screened for their ability to block the entry or intracellular trafficking of exogenous spermidine (or otherwise disrupt the intracellular trafficking of spermidine) by measuring cell viability in the presence of DFMO+spermidine+PTI compound. […] This was followed by adding 10 μL of […] and 5 μM spermidine (FAC 5 mM DFMO and 1 μM spermidine) in assay medium with a Beckman BioRAPTR FRD dispenser or 10 μL of 5 mM DFMO added in assay medium (positive control). […] A PTI compound is expected to block the entry or disrupt the intracellular trafficking of spermidine and inhibit the ability of spermidine to rescue the growth or viability of DFMO treated cells Cytotoxicity

[6] = tested on: CHO cells; experiment: Cytotoxicity screen in CHO cells; settings: for IC50 at 48 h: Chinese hamster, CHO K1 cells
Protocol: CHO K1 cells were grown in growth medium to 70% confluency and washed in PBS and trypsinized. […] Cells were spun at 100×g for 1 minute and incubated at 37° C. in a humidified CO2 incubator for 24 hours. […] Cellular ATP content was then assayed by adding 3 uL of ATPLite with a Beckman BioRAPTR FRD dispenser and incubated for 10 minutes at room temperature. Plates were spun at 200×g for 1 minute and read on a Perkin Elmer Viewlux multimode plate reader using luminescence mode. This assay was used for testing dose-response of dry powders.
CHO K1 cells were grown in growth medium to 70% confluency and washed in PBS and trypsinized. Cells were plated in assay medium at 10000 cells/mL for 200 cells per well using a Thermo Multidrop Combi in 20 uL into a white Greiner plate. Cells were spun at 100×g for 1 minute and incubated at 37° C. in a humidified CO2 incubator for 24 hours. […] This was followed by adding by 10 μL of assay medium to all wells with a Beckman BioRAPTR FRD dispenser. The plates were spun at 200×g for 1 minute and incubated at 37° C. in a humidified 5% CO2 incubator for 48 hours. Cellular ATP content was then assayed by adding 20 μL of ATPLite with a Beckman BioRAPTR FRD dispenser and incubated for 10 min at room temperature. Plates were spun at 200×g for 1 minute and read on a Perkin Elmer Envision for multimode plate reader using luminescence mode. Duplicates were run for each compound concentration, and the curves represent the average of the duplicates as percent viability.
The final compound concentration was either 20 μM or 10 μg/mL (depending upon the compound source). A successful PTI in Assay 1 would block the uptake of the toxic Ant44 probe and rescue the cells back to >90% relative growth vs an untreated control. It was critical to also evaluate the toxicity of the PTI by itself as a toxic PTI would give a false negative in Assay1 (and a false positive in Assay 2). […] Assay 2 then evaluated the ability of the compound to inhibit the uptake of a rescuing dose of Spermidine (Spd, 1 μM) into DFMO-treated CHO cells.

[7] = 72 h, Table 9, read-out: 72 h IC50
[8] = CHO, Table 7, read-out: SAR IC50 Ant44 assay
[9] = Table 4B, read-out: DFMO/CHO IC50
[10] = Table 7, read-out: SAR IC50 DFMO assay
[11] = Homo sapiens, Table 2, DFMO rescue in L3.6pl
[12] = read-out: IC50 values (toxicity profile)
[13] = relative growth after 72 h, read-out: L3.6pl IC50

| Structure (SMILES) | IC50 [1, 7] [µM] | MTD ([1]; Table 9) [µM] | EC value in Ant44 (3 μM) assay [2] | EC value in DFMO/Spd rescue assay [3] | IC50 [4, 8] [µM] | IC50 [5, 10] [µM] | IC50 at 48 h [6] [µM] | other results |
| --- | --- | --- | --- | --- | --- | --- | --- | --- |
| O=C(Nc1ccc(N2CCC(Oc3ccccc3)CC2)cc1C(=O)O)c1cc2ccccc2o1 | 44.4 ± 0.04 | 10 | EC7 = 10 μM | EC30 =10 μM | – | – | – | – |
| O=C(Nc1ccc(N2CCC(Oc3ccccc3)CC2)cc1C(=O)O)c1cc2ccccc2[nH]1 | 38.3 ± 0.04 | 10 | not working as a PTI | EC30 = 9 μM | – | – | – | – |
| Cl.O=C(Nc1ccc(N2CCNCC2)cc1C(=O)O)c1ccco1 | > 50 | 40 | EC22 = 40 μM | EC10 = 40 μM | – | – | – | – |
| O=C(Nc1ccc(N2CCC(Oc3ccccc3)CC2)cc1C(=O)O)c1cccnc1 | > 50 | 10 | Not working | EC25 = 8 μM | – | – | – | – |
| O=C(Nc1ccc(N2CCC(Oc3ccccc3)CC2)cc1C(=O)O)c1ccc(-c2ccc(Cl)cc2)o1 | > 1 | 1 | Not working | EC6 = 1 μM | – | – | – | – |
| O=C(Nc1ccc(F)cc1C(=O)O)c1ccco1 | > 100 | >100 | EC36 = 50 μM | EC67 = 100 μM | – | – | – | – |
| COc1ccccc1C(=O)Nc1ccc(N2CCC(c3ccccc3)CC2)cc1C(=O)O [SBI-0814418, 2-(2-methoxybenzamido)-5-(4-phenylpiperidin-1-yl)benzoic acid] | – | – | – | – | 18 | 21 | > 40 | activity in Ant44 assay ([4]; CHO cells): modest activity; EC50 ([4]; CHO, Table 2, Active in Ant44 assay?, read-out: Ant44 assay EC50 in CHO): 19 µM; IC50 ([4]; Table 4B, CHO cells, read-out: Ant44 IC50): 19 µM; Active in Ant44 assay? [4]: Yes; L3.6pl MTD ([1]; Table 2): 5 µM; L3.6pl MTD ([1]; Table 4B): (5-10) μM; L3.6pl MTD cell: percentage at 10 μM ([1]; at 10 μM): 80%; activity in DFMO assay [5]: modest activity; EC50 [5]: 21 µM; IC50 [5, 9]: 21 µM; general toxicity ([6]; CHO cells): without general toxicity; CHO MTD ([6]; hamster): >32 µM; Active in Ant44 assay? ([2]; Table 2, in L3.6pl): no; activity in DFMO assay run in L3.6 pl [3]: micromolar activity; EC50 [3, 11]: 5 µM |
| O=C(Nc1ccc(N2CCN(c3ccccn3)CC2)cc1C(=O)O)c1ccco1 [SBI-0814419, 2-(furan-2-carboxamido)-5-(4-(pyridin-2-yl)piperazin-1-yl)benzoic acid] | – | – | – | – | > 40 | > 40 | > 40 | EC50 ([4]; CHO, Table 3, read-out: Ant44 rescue EC50 CHO): > 32 µM; Ant44 IC50 ([4]; Table 5B, CHO cells): trace; IC50 [1, 12]: > 38 µM; IC50 [1, 13]: > 50 µM; MTD L3.6pl ([1]; Table 3): >20 µM; L3.6pl MTD ([1]; Table 5B): (>10) uM; L3.6pl MTC [1]: 12 µM; Active in DFMO assay? ([5]; Table 3, in CHO): No in CHO and in L3.6pl; MTD CHO ([6]; hamster): >32 µM; worked in Assay 1 (Ant44) [2]: performed in both assays; EC50 ([2]; Table 3, read-out: Ant44 rescue EC50 L3.6pl): 10 µM; EC50 ([2]; Table 5B, Ant44 blockade, read-out: L3.6pl EC50): 10 µM; worked in Assay 2 (DFMO) [3]: performed in both assays; Active in DFMO assay? ([3]; Table 3, in L3.6pl): No in CHO and in L3.6pl |
| COc1ccccc1C(=O)Nc1ccc(N2CCC(Oc3ccccc3)CC2)cc1C(=O)O [SBI-0814420, 2-(2-methoxybenzamido)-5-(4-phenoxypiperidin-1-yl)benzoic acid] | – | – | – | – | 32 | 19 | > 40 | IC50 [1, 12]: > 38 µM; IC50 [1, 13]: 38.6 ± 0.06 µM; L3.6pl MTC [1]: 10 µM; worked in Assay 1 (Ant44) [2]: performed in both assays; worked in Assay 2 (DFMO) [3]: performed in both assays |
| COc1ccccc1C(=O)Nc1ccc(N2CCN(Cc3ccccn3)CC2)cc1C(=O)O [SBI-0814421, 2-(2-methoxybenzamido)-5-(4-(pyridin-2-ylmethyl)piperazin-1-yl)benzoic acid] | – | – | – | – | > 40 | 10 | > 40 | Active in Ant44 assay? [4]: No in CHO; L3.6pl MTD ([1]; Table 2): 10 µM; L3.6pl MTD ([1]; Table 4B): (10) μM; activity in DFMO assay [5]: some level of activity; EC50 [5]: 20 µM; IC50 [5, 9]: 9.5 µM; CHO MTD ([6]; hamster): >20 µM; EC50 [3, 11]: > 10 µM; EC50 ([3]; Table 4B, DFMO-spermidine rescue): > 10 µM |
| COc1ccc(C(=O)Nc2ccc(N3CCN(c4cc(Cl)ccc4C)CC3)cc2C(=O)O)cc1 [drawing 134] | 16.8 ± 0.1 | 8 | EC21 = 8 μM | EC49 = 8 μM | – | – | – | – |
| COc1ccc(C(=O)Nc2ccc(N3CCN(c4cc(Cl)ccc4C)CC3)cc2C(=O)O)c(OC)c1 [drawing 135] | > 50 | >20 | inactive | EC15 = 20 μM | – | – | – | – |
| COc1ccccc1C(=O)Nc1ccc(N2CCN(c3cc(Cl)ccc3C)CC2)cc1C(=O)O [drawing 136] | 29.1 ± 0.03 | >5 | not working as a PTI | EC29 = 5 μM | – | – | – | – |
